In PubChem BioAssay (NCI) one finds TGI and GI50 data, which are given here for 15 compounds.

Among the test systems are SF-268 CNS; HT29 colon; KM12 colon; OVCAR-4 ovarian; SF-539 CNS; NCI-H23 lung; ACHN renal; HCC-2998 colon; MDA-MB-435; BT-549 breast.
Common to all, as to assay: NCI tumour cell line growth inhibition, 48 h

Where “and” joins values, the source holds several entries; their conditions need not be identical. Equal entries are not always repeated.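 Five concentrations, 48 hours, 96-well plates. GI50 = concentration required for 50% inhibition of growth. The concentration for full growth arrest is given as TGI.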

On to `CN(CCN(C)C(=O)CCOS(C)(=O)=O)C(=O)CCOS(C)(=O)=O`, for which the TGI in the test on SF-268 CNS, in the test with HT29 colon, in the test on KM12 colon, in the test on OVCAR-4 ovarian, in the test on SF-539 CNS and in the test with NCI-H23 lung was above 100 µM in each case. For the same compound, the TGI in the test with ACHN renal and in the test on HCC-2998 colon was above 100 µM each time.

In the case of `CCOC(=O)[C@H]1Nc2ccc(Cl)cc2[C@H]2c3ccccc3O[C@H]21`, the TGI in the test with SF-268 CNS, in the test with HT29 colon, in the test on KM12 colon, in the test with OVCAR-4 ovarian, in the test on SF-539 CNS and with ACHN renal was above 100 µM throughout. In the test on HCC-2998 colon, this compound showed a TGI above 100 µM.

As to `N#C[C@H]1Nc2ccccc2[C@@H](O)C1O` (stereo partly drawn), the TGI with SF-268 CNS, in the test on HT29 colon, with KM12 colon, in the test with OVCAR-4 ovarian, with SF-539 CNS and in the test on MDA-MB-435 was above 100 µM each time. The TGI in the test with NCI-H23 lung, with ACHN renal and with HCC-2998 colon was above 100 µM in each case.

Take `OCc1ccc(Oc2c3ccccc3nc3occc23)cc1`: the GI50 was 20.6 µM in the test on SF-268 CNS; 28.6 µM with HT29 colon; 17.8 µM in the test with KM12 colon; 37.9 µM in the test on OVCAR-4 ovarian; 28.9 µM in the test with SF-539 CNS; 15.5 µM in the test with MDA-MB-435. Also, the GI50 with NCI-H23 lung was 17.9 µM. The TGI with SF-268 CNS is 66.7 µM; in the test with HT29 colon, above 100 µM; in the test with KM12 colon, 37.8 µM; in the test on OVCAR-4 ovarian it was above 100 µM; in the test on SF-539 CNS, 71 µM; in the test with MDA-MB-435, 38.2 µM. In addition, in the test on NCI-H23 lung, the TGI amounted to 40.3 µM.

For the compound `O=CN1CCN(C=S)CC1`, the TGI with SF-268 CNS, with HT29 colon, in the test with KM12 colon, in the test with OVCAR-4 ovarian, in the test on SF-539 CNS and in the test with NCI-H23 lung was above 100 µM each time. Also, the TGI with ACHN renal and in the test on HCC-2998 colon was above 100 µM in each case.

As for `Clc1cc(Cl)cc(Nc2nc3ccccc3nc2-c2cccs2)c1`, the TGI is above 100 µM in the test with SF-268 CNS; 26.9 µM in the test on HT29 colon; above 100 µM in the test with SF-539 CNS; above 100 µM in the test on NCI-H23 lung; 60.3 µM in the test with ACHN renal; above 100 µM in the test with HCC-2998 colon.

In the case of `NC(=O)c1c2c(cc3c(=O)c4ccccc4[nH]c13)CCCC2`, the TGI in the test on SF-268 CNS, in the test on HT29 colon, with KM12 colon, in the test on OVCAR-4 ovarian, with SF-539 CNS and in the test on NCI-H23 lung was above 100 µM each time. Moreover, the TGI in the test on ACHN renal and with HCC-2998 colon was above 100 µM each time.

Turning to `O=C(O)c1ccc(C2C3C=CC(C3)C2[N+](=O)[O-])cc1` (stereo not drawn), the TGI in the test with SF-268 CNS, with HT29 colon, in the test on KM12 colon, in the test with SF-539 CNS, in the test with NCI-H23 lung and with HCC-2998 colon was above 100 µM each time.

On to `COc1cc(OC)cc(-c2cncn2-c2ccc(-c3nc4cc(OC)cc(OC)c4s3)cc2)c1`, for which the GI50 with SF-268 CNS is 11.3 µM; in the test with KM12 colon it was 4.52 µM; in the test with SF-539 CNS, 5.76 µM; in the test with BT-549 breast it was 3.09 µM; with NCI-H23 lung it was 10.3 µM; in the test on ACHN renal, above 100 µM. The GI50 with HCC-2998 colon was above 100 µM. The TGI in the test on SF-268 CNS, in the test with KM12 colon, with SF-539 CNS, in the test on BT-549 breast, in the test on NCI-H23 lung and with ACHN renal was above 100 µM throughout. This compound showed a TGI in the test on HCC-2998 colon above 100 µM.

Consider `C=CCN(CC=C)CC(C(C)=O)C(c1ccccc1)c1c(O)c2ccccc2oc1=O` (stereo not drawn), for which the TGI in the test with SF-268 CNS is above 100 µM; in the test with HT29 colon, above 100 µM; in the test with KM12 colon, 37.9 µM; in the test with OVCAR-4 ovarian it was above 100 µM; with SF-539 CNS, above 100 µM; in the test with NCI-H23 lung, above 100 µM. In addition, the TGI in the test on ACHN renal and in the test with HCC-2998 colon was above 100 µM throughout.

As to `CCOC(=O)C(=O)Nc1ccc(Cl)c(C(F)(F)F)c1`, the TGI in the test with SF-268 CNS, in the test with HT29 colon, with OVCAR-4 ovarian, in the test with SF-539 CNS, in the test with NCI-H23 lung and in the test on ACHN renal was above 100 µM each time. The compound also returned a TGI in the test on HCC-2998 colon above 100 µM.

For the compound `CC1CC2(CCC1OCc1ccccc1)OCCO2` (stereo not drawn), the TGI in the test on HT29 colon, with KM12 colon, in the test with OVCAR-4 ovarian, with SF-539 CNS, in the test on NCI-H23 lung and in the test with HCC-2998 colon was above 100 µM in each case.

Regarding `C[Si]12OCCCN(CCO1)CCO2`, the TGI with SF-268 CNS, with HT29 colon, in the test on KM12 colon, in the test with SF-539 CNS, in the test on NCI-H23 lung and in the test on ACHN renal was above 100 µM each time. Moreover, the TGI with HCC-2998 colon is above 100 µM.

With `Cc1cc(NC(=O)NC(=O)c2ccccc2NC(=O)CN)ccc1Oc1ncc(Br)cn1`, the GI50 in the test on SF-268 CNS is 0.608 µM; in the test on HT29 colon, 0.0653 µM; in the test on KM12 colon, 0.146 µM; in the test on OVCAR-4 ovarian, 17 µM; in the test with SF-539 CNS, 0.0762 µM and 0.0509 µM; in the test on MDA-MB-435, 0.0399 µM. Moreover, the values for the GI50 with NCI-H23 lung, in the test with ACHN renal and in the test on HCC-2998 colon were 0.331 µM, 5.25 µM and 0.354 µM, respectively. Further, the TGI with SF-268 CNS is 43.2 µM and 29.5 µM; in the test on KM12 colon, 34.5 µM and > 100 µM; with OVCAR-4 ovarian, 45.4 µM and > 100 µM; in the test on SF-539 CNS it was 0.351 µM and 0.481 µM; in the test with MDA-MB-435, 1.78 µM and 0.494 µM; in the test on NCI-H23 lung it was 15.5 µM and 13.8 µM. For the same compound, the TGI was 40.7 µM and 80.3 µM in the test on ACHN renal; 18 µM and 2.68 µM in the test on HCC-2998 colon.

For `COc1ccccc1NC(=O)C1=C(C)NC(C)=C(C(=O)Nc2ccccc2OC)C1c1cccc2c1OCO2`, the TGI in the test with SF-268 CNS, in the test on HT29 colon, in the test on KM12 colon, in the test with OVCAR-4 ovarian, with SF-539 CNS and in the test with NCI-H23 lung was above 100 µM in each case. In addition, the TGI with ACHN renal and in the test with HCC-2998 colon was above 100 µM each time.
